This test deals with rhIFNγ stimulated STAT-3 phosphorylation in the A549 human epithelial cell line. The test can be described thus: A549 Cell Assay: Inhibition of pSTAT3. As to conditions: A549 cells. The format is cell-based. Here is the method: A549 Cell Assay: Inhibition of pSTAT3
An assay measuring the efficacy of JAK inhibitors on the functional response of recombinant human interferon γ (rhIFNγ) stimulated STAT-3 phosphorylation in the A549 human epithelial cell line.
A549 cells (ATCC #CCL-185), were plated at 30,000 cells/well in 96 well flat bottomed tissue culture plates (BD#353072) in 200 μL of growth medium (DMEM, Pfizer media prep, with 10% Fetal Bovine Serum, Sigma #F4135, 2 mM L-Glutamine, Pfizer media prep, 100 U/mL penicillin, Pfizer media prep, and 200 μg/ml streptomycin, Pfizer media prep), and cultured at 37° C., 5% CO2 incubator for 18 hours. Growth medium was removed by vacuum aspiration (V&P Scientific #vp187 bp-60), and 90 μL of pre-warmed assay medium (DMEM with 0.2% BSA, Miltenyi #130-091-376) was added to each well and incubated for 15 minutes at 37° C. 10 μL of vehicle control or test compound (final concentration range of 0.3 nM to 10 μM with 0.1% DMSO) was added to the cells. Plates were incubated at 37° C. for 1 hour. After compound incubation, 10 μL of 220 ng/mL recombinant human IFNγ (R&D Systems #285-IF, final rhIFNγ concentration of 20 ng/mL) was added to the cells and plates were incubated for 30 minutes at 37° C. Wells containing A549 cells, medium with 0.1% DMSO and no rhIFNγ were used as background controls. After rhIFNγ stimulation, media was aspirated from each well and 35 μL/well of iced-cold MSD lysis buffer containing protease and phosphatase inhibitors from Phospho-STAT3 Tyr705 assay kit (Meso-Scale Discovery #K150DID) was added to each well. Plates were incubated at 4° C. with shaking for 30 minutes. Cell lysates were assayed following the MSD Phospho-STAT3 Tyr705 assay kit protocol to detect pSTAT3.
Data were collected and transformed into percent inhibition and calculated using the following formula: […]

On to `Cc1ccc(S(=O)(=O)N(C)c2ccccc2CNc2nc(-c3cc(F)c(O)cc3CC(F)(F)F)cc3[nH]nc(C(N)=O)c23)cn1` [Example 70, 6-[5-fluoro-4-hydroxy-2-(2,2,2-trifluoroethyl)phenyl]-4-[(2-{methyl[(6-methylpyridin-3-yl)sulfonyl]amino}benzyl)amino]-1H-pyrazolo[4,3-c]pyridine-3-carboxamide], for which, under “Homo sapiens”, 46.2 nM corresponded to half-maximal inhibition (IC50). As to `CCN(c1ncc(Cl)cc1CNc1nc(-c2cc(F)c(O)cc2CC(F)(F)F)cc2[nH]nc(C(N)=O)c12)S(C)(=O)=O` [Example 71, 4-[({5-chloro-2-[ethyl(methylsulfonyl)amino]pyridin-3-yl}methyl)amino]-6-[5-fluoro-4-hydroxy-2-(2,2,2-trifluoroethyl)phenyl]-1H-pyrazolo[4,3-c]pyridine-3-carboxamide], for the setting “Homo sapiens”, the IC50 turned out to be 110 nM. This IC50 is about 2.4-fold higher than that of the compound before.

With `CN(c1ncc(Cl)cc1CNc1nc(-c2cc(F)c(O)cc2CC(F)(F)F)cc2[nH]nc(C(N)=O)c12)S(C)(=O)=O` [Example 72, 4-[({5-chloro-2-[methyl(methylsulfonyl)amino]pyridin-3-yl}methyl)amino]-6-[5-fluoro-4-hydroxy-2-(2,2,2-trifluoroethyl)phenyl]-1H-pyrazolo[4,3-c]pyridine-3-carboxamide], 94.1 nM corresponded to half-maximal inhibition (Homo sapiens) (IC50). Still for that read-out and setting: to `CCc1cc(O)c(F)cc1-c1cc2[nH]nc(C(=O)NC)c2c(NCc2ccccc2N(C)S(N)(=O)=O)n1` [Example 73, 6-(2-ethyl-5-fluoro-4-hydroxyphenyl)-N-methyl-4-({2-[methyl(sulfamoyl)amino]benzyl}amino)-1H-pyrazolo[4,3-c]pyridine-3-carboxamide] belongs 35.6 nM; to `CN(c1ncc(F)cc1CNc1nc(-c2cc(F)c(O)cc2CC(F)(F)F)cc2[nH]nc(C(N)=O)c12)S(C)(=O)=O` [Example 78, 6-[5-Fluoro-4-hydroxy-2-(2,2,2-trifluoroethyl)phenyl]-4-[({5-fluoro-2-[methyl(methyl-sulfonyl)amino]pyridin-3-yl}methyl)amino]-1H-pyrazolo[4,3-c]pyridine-3-carboxamide], 27.2 nM; to `CCN(c1ncc(F)cc1CNc1nc(-c2cc(F)c(O)cc2CC(F)(F)F)cc2[nH]nc(C(N)=O)c12)S(C)(=O)=O` [Example 79, 4-[({2-[ethyl(methylsulfonyl)amino]-5-fluoropyridin-3-yl}methyl)amino]-6-[5-fluoro-4-hydroxy-2-(2,2,2-trifluoroethyl)phenyl]-1H-pyrazolo[4,3-c]pyridine-3-carboxamide], 30.7 nM. The same measure, in the same setting: to `CCN(c1nccnc1CNc1nc(-c2cc(F)c(O)cc2CC(F)(F)F)cc2[nH]nc(C(N)=O)c12)S(C)(=O)=O` [Example 80, 4-[({3-[ethyl(methylsulfonyl)amino]pyrazin-2-yl}methyl)amino]-6-[5-fluoro-4-hydroxy-2-(2,2,2-trifluoroethyl)phenyl]-1H-pyrazolo[4,3-c]pyridine-3-carboxamide] belongs 197 nM; to `CCN(c1ccccc1CNc1nc(-c2cc(F)c(O)cc2CC(F)(F)F)cc2[nH]nc(C(N)=O)c12)S(=O)(=O)CC` [Example 82, 4-((2-(N-ethylethylsulfonamido)benzyl)amino)-6-(5-fluoro-4-hydroxy-2-(2,2,2-trifluoroethyl)phenyl)-1H-pyrazolo[4,3-c]pyridine-3-carboxamide], 20.9 nM; to `CCN(c1ccc(F)cc1CNc1nc(-c2cc(F)c(O)cc2CC(F)(F)F)cc2[nH]nc(C(N)=O)c12)S(C)(=O)=O` [Example 83, 4-((2-(N-ethylmethylsulfonamido)-5-fluorobenzyl)amino)-6-(5-fluoro-4-hydroxy-2-(2,2,2-trifluoroethyl)phenyl)-1H-pyrazolo[4,3-c]pyridine-3-carboxamide], 30 nM.

Compound `CCN(c1ccc(Cl)cc1CNc1nc(-c2cc(F)c(O)cc2CC(F)(F)F)cc2[nH]nc(C(N)=O)c12)S(C)(=O)=O` [Example 84, 4-((5-chloro-2-(N-ethylmethylsulfonamido)benzyl)amino)-6-(5-fluoro-4-hydroxy-2-(2,2,2-trifluoroethyl)phenyl)-1H-pyrazolo[4,3-c]pyridine-3-carboxamide] had a half-inhibitory concentration (IC50) (Homo sapiens) of 32.9 nM. The same measure, in the same setting: to `CCS(=O)(=O)N(C)c1ccccc1CNc1nc(-c2cc(F)c(O)cc2CC(F)(F)F)cc2[nH]nc(C(N)=O)c12` [Example 85, 6-(5-fluoro-4-hydroxy-2-(2,2,2-trifluoroethyl)phenyl)-4-((2-(N-methylethylsulfonamido)benzyl)amino)-1H-pyrazolo[4,3-c]pyridine-3-carboxamide] belongs 12.9 nM. In the case of `CCN(c1ncc(C)cc1CNc1nc(-c2cc(F)c(O)cc2CC(F)(F)F)cc2[nH]nc(C(N)=O)c12)S(C)(=O)=O` [Example 87, 4-[({2-[ethyl(methylsulfonyl)amino]-5-methylpyridin-3-yl}methyl)amino]-6-[5-fluoro-4-hydroxy-2-(2,2,2-trifluoroethyl)phenyl]-1H-pyrazolo[4,3-c]pyridine-3-carboxamide], the IC50 (Homo sapiens) worked out at 213 nM. This IC50 lies about 17-fold higher than the previous one.

As for `CN(c1ccc(F)cc1CNc1nc(-c2cc(F)c(O)cc2CC(F)(F)F)cc2[nH]nc(C(N)=O)c12)S(C)(=O)=O` [Example 88, 6-[5-fluoro-4-hydroxy-2-(2,2,2-trifluoroethyl)phenyl]-4-({5-fluoro-2-[methyl(methylsulfonyl)amino]benzyl}amino)-1H-pyrazolo[4,3-c]pyridine-3-carboxamide], it took 31.5 nM to reach half-maximal inhibition (Homo sapiens) (IC50).

With `CN(c1ccc(Cl)cc1CNc1nc(-c2cc(F)c(O)cc2CC(F)(F)F)cc2[nH]nc(C(N)=O)c12)S(C)(=O)=O` [Example 89, 4-({5-chloro-2-[methyl(methylsulfonyl)amino]benzyl}amino)-6-[5-fluoro-4-hydroxy-2-(2,2,2-trifluoroethyl)phenyl]-1H-pyrazolo[4,3-c]pyridine-3-carboxamide], the 50% inhibitory concentration (IC50) (Homo sapiens) amounted to 46.3 nM. This IC50 and that of the compound before are within 1.5-fold of each other. Same read-out and setting: the result for `CCN(c1ccccc1CNc1nc(-c2cc(F)c(O)cc2CC(F)(F)F)cc2[nH]nc(C(N)=O)c12)S(C)(=O)=O` [Example 90, 4-({2-[ethyl(methylsulfonyl)amino]benzyl}amino)-6-[5-fluoro-4-hydroxy-2-(2,2,2-trifluoroethyl)phenyl]-1H-pyrazolo[4,3-c]pyridine-3-carboxamide] reads 30.4 nM; that for `CCN(c1ccc(C)cc1CNc1nc(-c2cc(F)c(O)cc2CC(F)(F)F)cc2[nH]nc(C(N)=O)c12)S(C)(=O)=O` [Example 91, 4-({2-[ethyl(methylsulfonyl)amino]-5-methylbenzyl}amino)-6-[5-fluoro-4-hydroxy-2-(2,2,2-trifluoroethyl)phenyl]-1H-pyrazolo[4,3-c]pyridine-3-carboxamide], 26.3 nM. Compound `CNC(=O)c1n[nH]c2nc(-c3cc(F)c(O)cc3CC(F)(F)F)nc(NCc3ccccc3N(C)S(C)(=O)=O)c12` [Example 94] gave an IC50 of 126 nM. For `CCc1cc(O)c(F)cc1-c1nc(NCc2ccccc2N(C)S(=O)(=O)c2ccccc2)c2c(C(N)=O)n[nH]c2n1` [Example 95, 6-(2-Ethyl-5-fluoro-4-hydroxyphenyl)-4-((2-(N-methylphenylsulfonamido)benzyl)amino)-1H-pyrazolo[3,4-d]pyrimidine-3-carboxamide], under “Homo sapiens”, half-maximal inhibition (IC50) required 59.9 nM. `CN(c1ccccc1CNc1nc(-c2cc(F)c(O)cc2CC(F)(F)F)nc2[nH]nc(C(N)=O)c12)S(=O)(=O)c1ccccc1` [Example 96, 6-(5-Fluoro-4-hydroxy-2-(2,2,2-trifluoroethyl)phenyl)-4-((2-(N-methylphenylsulfonamido)benzyl)amino)-1H-pyrazolo[3,4-d]pyrimidine-3-carboxamide] returned an IC50 (Homo sapiens) of 2870 nM. This IC50 lies about 48-fold higher than the previous one.

In general, IC50 refers to the point on the concentration scale where inhibition reaches its midpoint. A lower IC50 goes with greater potency.

The values are drawn from US10022376B2 (Pfizer Inc., priority 2014, dated 2018).
